Assay results taken from patent EP0647618A1, “NEW NON IONIC IODINE-CONTAINING DIMERS USEFUL AS X-RAY CONTRAST AGENTS, METHOD FOR THE PREPARATION THEREOF, AND GALENICAL COMPOSITIONS CONTAINING THEM” (CENTRO INVESTIGACION JUSTESA IMAGEN S.A., priority 1993, dated 1994).
Read-outs that look alike come from different tables or passages of the source.

How the values were obtained:
[1] = Viscosity of aqueous solution at 300 mg I/ml; type: physicochemical; conditions: for VISCOSITY mPas (37°C) at 300 mg I/ml: 300 mg I/ml (Table II)
[2] = physchem; type: physicochemical; conditions: for solubility: water
Method: (§1) On the other hand, radiologists need compounds with a wide range of uses: for example, angiography, urography, myelography, cisternography, lymphography, cardiography and gastrography. The products according to this invention fulfil the requirements for the above uses, as they have high water solubility, normally higher than 60% (w/v), which, in some cases, is as high as 100% at 20°C, without showing any tendency to crystallize. They also have a very low general toxicity, stated as the average lethal dose for the rat, DL₅₀.

[3] = Osmolality of aqueous solution at 300 mg I/ml; type: physicochemical; conditions: for OSMOLALITY mOsm/kg at 300 mg I/ml: 300 mg I/ml (Table II)
[4] = tested on: RAT; assay: General toxicity, average lethal dose (DL50) in the rat, i.v.; type: in vivo
Method: as §1

[5] = 20°C (Table II), read-out: SOLUBILITY IN WATER at 20°

O=C(CN(CC(=O)Nc1c(I)c(C(=O)NCC(O)CO)c(I)c(C(=O)NCC(O)CO)c1I)CC(O)CO)Nc1c(I)c(C(=O)NCC(O)CO)c(I)c(C(=O)NCC(O)CO)c1I (centres unmarked) [ICJ-1092, N,N'-Bis-{3,5-bis-[N-(2,3-dihydroxypropyl)carbamoyl]-2,4,6-triiodophenyl}-3-(2,3-dihydroxypropyl)-3-azapentanediamide]
VISCOSITY mPas (37°C) at 300 mg I/ml [1]: 10.3 mPas
solubility [2, 5]: > 600 mg/mL
OSMOLALITY mOsm/kg at 300 mg I/ml [3]: 193 mOsm/kg

O=C(CN(CCO)CC(=O)Nc1c(I)c(C(=O)NCC(O)CO)c(I)c(C(=O)NCC(O)CO)c1I)Nc1c(I)c(C(=O)NCC(O)CO)c(I)c(C(=O)NCC(O)CO)c1I (centres unmarked) [ICJ-1192, N,N'-Bis-{3,5-bis-[N-(2,3-dihydroxypropyl)carbamoyl]-2,4,6-triiodophenyl}-3-(2-hydroxyethyl)-3-azapentanediamide]
DL50 (RAT) via i.v. g I/kg [4]: > 25 g I/kg
VISCOSITY 37°C mPa.s 300 mg I/ml ([1]; 300 mg I/ml (Table I)): 9.4 mPa.s
VISCOSITY mPas (37°C) at 300 mg I/ml [1]: 9.4 mPas
SOLUBILITY IN WATER at 20° ([2]; 20°C (Table II)): > 60%
solubility ([2]; 20°C (Table I), read-out: SOLUBILITY in water at 20°C (w/v)): > 600 mg/mL
OSMOLALITY mOsm/kg at 300 mg I/ml [3]: 167 mOsm/kg
OSMOLALITY 37°C mOsm/kg at 300 mg I/ml ([3]; 37°C, 300 mg I/ml (Table I)): 167 mOsm/kg

O=C(CN(CCO)CC(=O)Nc1c(I)c(C(=O)NCC(O)CO)c(I)c(C(=O)NCC(O)CO)c1I)Nc1c(I)c(C(=O)NCCO)c(I)c(C(=O)NCCO)c1I (centres unmarked) [ICJ-1292, N-{3,5-Bis-[N-(2,3-dihydroxypropyl)carbamoyl]-2,4,6-triiodophenyl}-N'-{3,5-bis-[N-(2-hydroxyethyl)carbamoyl]-2,4,6-triiodophenyl}-3-(2-hydroxyethyl)-3-azapentanediamide]
solubility [2, 5]: < 600 mg/mL

O=C(CN(CCO)CC(=O)Nc1c(I)c(C(=O)NCCO)c(I)c(C(=O)NCCO)c1I)Nc1c(I)c(C(=O)NCCO)c(I)c(C(=O)NCCO)c1I [ICJ-1392, N,N'-Bis-{3,5-bis-[N-(2-hydroxyethyl)carbamoyl]-2,4,6-triiodophenyl}-3-(2-hydroxyethyl)-3-azapentanedimide]
solubility [2, 5]: < 600 mg/mL

O=C(CN(CC(=O)Nc1c(I)c(C(=O)NCC(O)CO)c(I)c(C(=O)NCC(O)CO)c1I)CC(O)CO)Nc1c(I)c(C(=O)NCCO)c(I)c(C(=O)NCCO)c1I (centres unmarked) [ICJ-1492, N-{3,5-bis-[N-(2,3-dihydroxypropyl)carbamoyl]-2,4,6-triiodophenyl}-N'-{3,5-bis-[N-(2-hydroxyethyl)carbamoyl]-2,4,6-triiodophenyl)-3-(2,3-dihydroxypropyl)-3-azapentanediamide]
VISCOSITY mPas (37°C) at 300 mg I/ml [1]: 9.5 mPas
solubility [2, 5]: < 600 mg/mL
OSMOLALITY mOsm/kg at 300 mg I/ml [3]: 137 mOsm/kg

CN(C(=O)CN(CCO)CC(=O)Nc1c(I)c(C(=O)NCC(O)CO)c(I)c(C(=O)NCC(O)CO)c1I)c1c(I)c(C(=O)NCC(O)CO)c(I)c(C(=O)NCC(O)CO)c1I (centres unmarked) [ICJ-1792, N,N'-Bis-{3,5-bis-[N-(2,3-dihydroxypropyl)carbamoyl]-2,4,6-triiodophenyl}-N-methyl-3-(2-hydroxyethyl)-3-azapentanediamide]
VISCOSITY mPas (37°C) at 300 mg I/ml [1]: 10.6 mPas
solubility [2, 5]: > 600 mg/mL
OSMOLALITY mOsm/kg at 300 mg I/ml [3]: 157 mOsm/kg

CN(C(=O)CN(CCO)CC(=O)Nc1c(I)c(C(=O)NCCO)c(I)c(C(=O)NCCO)c1I)c1c(I)c(C(=O)NC(CO)C(O)CO)c(I)c(C(=O)NC(CO)C(O)CO)c1I (centres unmarked) [ICJ-1892, N{3,5-Bis-[N-(1-hydroxymethyl-2,3-dihydroxypropyl)carbamoyl]-2,4,6-triiodophenyl}-N-methyl-N'-{3,5-bis-[N-(2-hydroxyethyl)carbamoyl]-2,4,6-triiodophenyl}-3-(2-hydroxyethyl)-3-azapentanediamide]
VISCOSITY mPas (37°C) at 300 mg I/ml [1]: 9.7 mPas
solubility [2, 5]: > 600 mg/mL
OSMOLALITY mOsm/kg at 300 mg I/ml [3]: 133 mOsm/kg

CN(C(=O)CN(CCO)CC(=O)Nc1c(I)c(C(=O)NC(CO)C(O)CO)c(I)c(C(=O)NC(CO)C(O)CO)c1I)c1c(I)c(C(=O)NCCO)c(I)c(C(=O)NCCO)c1I (centres unmarked) [ICJ-1992, N-{3,5-Bis-[N-(1-hydroxymethyl-2,3-dihydroxypropyl)carbamoyl]-2,4,6-triiodophenyl}-N'-methyl-N'-{3,5-bis-[N-(2-hydroxyethyl)carbamoyl]-2,4,6-triiodophenyl}-3-(2-hydroxyethyl)-3-azapentanediamide]
VISCOSITY mPas (37°C) at 300 mg I/ml [1]: 9.1 mPas
solubility [2, 5]: > 600 mg/mL
OSMOLALITY mOsm/kg at 300 mg I/ml [3]: 164 mOsm/kg

CN(C(=O)CN(CCO)CC(=O)N(C)c1c(I)c(C(=O)NC(CO)C(O)CO)c(I)c(C(=O)NC(CO)C(O)CO)c1I)c1c(I)c(C(=O)NCCO)c(I)c(C(=O)NCCO)c1I (centres unmarked) [ICJ-2092, N-{3,5-Bis-[N-(1-hydroxymethyl-2,3-dihydroxypropyl)carbamoyl]-2,4,6-triiodophenyl}-N'-{3,5-bis-[N-(2-hydroxyethyl)carbamoyl]-2,4,6-triiodophenyl}-N,N'-dimethyl-3-(2-hydroxyethyl)-3-azapentanediamide]
VISCOSITY mPas (37°C) at 300 mg I/ml [1]: 9.5 mPas
solubility [2, 5]: > 600 mg/mL
OSMOLALITY mOsm/kg at 300 mg I/ml [3]: 188 mOsm/kg

CN(C(=O)CN(CCO)CC(=O)Nc1c(I)c(C(=O)NCC(O)CO)c(I)c(C(=O)NCC(O)CO)c1I)c1c(I)c(C(=O)NCCO)c(I)c(C(=O)NCCO)c1I (centres unmarked) [ICJ-2192, N-{3,5-Bis-[N-(2,3-dihydroxpropyl)carbamoyl]-2,4,6-triiodophenyl}-N'-methyl-N'-{3,5-bis-[N-(2-hydroxyethyl)carbamoyl]-2,4,6-triiodophenyl}-3-(2-hydroxyethyl)-3-azapentanediamide]
solubility [2, 5]: < 600 mg/mL

CN(C(=O)CN(CCO)CC(=O)N(C)c1c(I)c(C(=O)NCC(O)CO)c(I)c(C(=O)NCC(O)CO)c1I)c1c(I)c(C(=O)NCCO)c(I)c(C(=O)NCCO)c1I (centres unmarked) [ICJ-2292, N-{3,5-Bis-[N-(2,3-dihydroxypropyl)carbamoyl]-2,4,6-triiodophenyl}-N'-{3,5-bis-[N-(2-hydroxyethyl)carbamoyl]-2,4,6-triiodophenyl}-N,N'-dimethyl-3-(2-hydroxyethyl)-3-azapentanediamide]
VISCOSITY mPas (37°C) at 300 mg I/ml [1]: 11.0 mPas
solubility [2, 5]: > 600 mg/mL
OSMOLALITY mOsm/kg at 300 mg I/ml [3]: 162 mOsm/kg

CN(C(=O)CN(CCO)CC(=O)N(C)c1c(I)c(C(=O)NCCO)c(I)c(C(=O)NCCO)c1I)c1c(I)c(C(=O)NCCO)c(I)c(C(=O)NCCO)c1I [ICJ-2392, N,N'-Bis-{3,5-bis-[N-(2-hydroxethyl)carbamoyl]-2,4,6-triiodophenyl}-N,N'-dimethyl-3-(2-hydroxyethyl)-3-azapentanedimide]
solubility [2, 5]: < 600 mg/mL

CN(C(=O)CN(CCO)CC(=O)Nc1c(I)c(C(=O)NCCO)c(I)c(C(=O)NCCO)c1I)c1c(I)c(C(=O)NCC(O)CO)c(I)c(C(=O)NCC(O)CO)c1I (centres unmarked) [ICJ-2492, N-{3,5-Bis-[N-(2,3-dihydroxpropyl)carbamoyl]-2,4,6-triiodophenyl}-N-methyl-N'-{3,5-bis-[N-(2-hydroxyethyl)carbamoyl]-2,4,6-triiodophenyl}-3-(2-hydroxyethyl)-3-azapentanediamide]
solubility [2, 5]: < 600 mg/mL

O=C(CN(CC(=O)Nc1c(I)c(C(=O)NCCO)c(I)c(C(=O)NCCO)c1I)C(CO)C(O)CO)Nc1c(I)c(C(=O)NCCO)c(I)c(C(=O)NCCO)c1I (centres unmarked) [ICJ-2592, N,N'-Bis-{3,5-bis-[N-(2-hydroxyethyl)carbamoyl]-2,4,6-triiodophenyl}-3-(1-hydroxymethyl-2,3-dihydroxypropyl)-3-azapentanediamide]
VISCOSITY mPas (37°C) at 300 mg I/ml [1]: 9.1 mPas
solubility [2, 5]: > 600 mg/mL
OSMOLALITY mOsm/kg at 300 mg I/ml [3]: 180 mOsm/kg

COCCN(CC(=O)Nc1c(I)c(C(=O)NCC(O)CO)c(I)c(C(=O)NCC(O)CO)c1I)CC(=O)Nc1c(I)c(C(=O)NCC(O)CO)c(I)c(C(=O)NCC(O)CO)c1I (centres unmarked) [ICJ-2692, N,N'-Bis-{3,5-bis-[N-(2,3-dihydroxypropyl)carbamoyl]-2,4,6-triiodophenyl}-3-(2-methoxyethyl)-3-azapentanediamide]
VISCOSITY mPas (37°C) at 300 mg I/ml [1]: 9.7 mPas
solubility [2, 5]: > 600 mg/mL
OSMOLALITY mOsm/kg at 300 mg I/ml [3]: 185 mOsm/kg

CN(CC(=O)Nc1c(I)c(C(=O)NCC(O)CO)c(I)c(C(=O)NCC(O)CO)c1I)CC(=O)Nc1c(I)c(C(=O)NCC(O)CO)c(I)c(C(=O)NCC(O)CO)c1I (centres unmarked) [ICJ-2792, N,N'-Bis-{3,5-bis-[N-(2,3-dihydroxypropyl)carbamoyl]-2,4,6-triiodophenyl}-3-methyl-3-azapentanediamide]
solubility [2, 5]: < 600 mg/mL

COCCN(CC(=O)N(C)c1c(I)c(C(=O)NCC(O)CO)c(I)c(C(=O)NCC(O)CO)c1I)CC(=O)N(C)c1c(I)c(C(=O)NCC(O)CO)c(I)c(C(=O)NCC(O)CO)c1I (centres unmarked) [ICJ-2892, N,N'-Bis-{3,5-bis-[N-(2,3-dihydroxypropyl)carbamoyl]-2,4,6-triiodophenyl}-N,N'-dimethyl-3-(2-methoxymethyl)-3-azapentanediamide]
VISCOSITY mPas (37°C) at 300 mg I/ml [1]: 10.8 mPas
solubility [2, 5]: > 600 mg/mL
OSMOLALITY mOsm/kg at 300 mg I/ml [3]: 200 mOsm/kg

CN(CC(=O)N(C)c1c(I)c(C(=O)NCC(O)CO)c(I)c(C(=O)NCC(O)CO)c1I)CC(=O)N(C)c1c(I)c(C(=O)NCC(O)CO)c(I)c(C(=O)NCC(O)CO)c1I (centres unmarked) [ICJ-2992, N,N'-Bis-{3,5-bis-[N-(2,3-dihydroxypropyl)carbamoyl]-2,4,6-triiodophenyl}-N,N'-dimethyl-3-methyl-3-azapentanediamide]
solubility [2, 5]: > 600 mg/mL
